From patent publication US10519140B2, “Indolin-2-one derivatives” (Hoffmann-La Roche Inc., priority 2015, dated 2019) come the findings set out here.

In the test the target is T1, mouse ENT-1 transporter (Mus musculus, UniProt Q9JIM1).
T1 construct: expressed in transfected cells
T1 sequence (Q9JIM1 1-460): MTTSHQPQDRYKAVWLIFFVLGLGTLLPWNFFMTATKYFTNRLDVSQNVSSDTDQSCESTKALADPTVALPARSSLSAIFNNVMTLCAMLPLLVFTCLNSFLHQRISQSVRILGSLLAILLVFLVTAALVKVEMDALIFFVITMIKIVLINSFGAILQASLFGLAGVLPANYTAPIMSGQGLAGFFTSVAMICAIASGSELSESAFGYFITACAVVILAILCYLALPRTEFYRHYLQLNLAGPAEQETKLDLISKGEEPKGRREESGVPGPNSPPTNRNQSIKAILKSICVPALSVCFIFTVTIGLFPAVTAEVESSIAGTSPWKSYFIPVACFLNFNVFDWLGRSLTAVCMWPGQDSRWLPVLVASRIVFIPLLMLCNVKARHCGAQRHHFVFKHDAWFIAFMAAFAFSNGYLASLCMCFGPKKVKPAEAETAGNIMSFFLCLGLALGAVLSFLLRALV
As to the kind of experiment: Adenosine transport activity (ENT1, [3H]-adenosine uptake inhibition). Conditions: stable cells expressing mouse ENT-1; [2,8-3H]-adenosine 6 nM, 20 min. Type of test: cell-based. As for the experimental part:
To measure adenosine transport activity of ENT-1 mammalian cells, stable cells expressing the mouse ENT-1 transporter were plated on day 1 in 96-well culture plates at the density of 60,000 cells/well, in complete DMEM/F12 medium supplemented with glutamax, 10% FBS and 10 μg/ml puromycin. On day 2, the medium was aspirated and the cells were washed twice with uptake buffer (10 mM Hepes-Tris, pH 7.4 containing 150 mM NaCl, 1 mM CaCl2, 2.5 mM KCl, 2.5 mM MgSO4, 10 mM D-glucose) (UB). For inhibition experiments, cells were then incubated at RT with various concentrations of compounds with 1% DMSO final. Non-specific uptake was defined in the presence of 10 μM S-(4-Nitrobenzyl)-6-thioinosine (NBTI, Sigma Cat #N2255). A solution containing [2,8-^3H]-adenosine 6 nM (40 Ci/mmol, American Radiolabeled chemicals Inc, Cat #ART 0287A) was then immediately added to the wells. The plates were then incubated for 20 min with gentle shaking and the reaction was stopped by aspiration of the mixture and washing (three times) with ice-cold UB. The cells were lysed by the addition of scintillation liquid, shaken 3 hours and the radioactivity in the cells was estimated using a microplates scintillation counter (TopCount NXT, Packard).

On to `Cc1ncc(-c2ccc3c(c2)N(c2cnc4c(n2)[nH]c(=O)n4C)C(=O)C3(C)C)cn1` [Example 35, 5-(3,3-Dimethyl-6-(2-methylpyrimidin-5-yl)-2-oxoindolin-1-yl)-1-methyl-1H-imidazo[4,5-b]pyrazin-2(3H)-one], for which half-maximal inhibition (IC50) was put at 496 nM. The same measure for `Cc1ncc(-c2ccc3c(c2)N(c2cnc4[nH]c(=O)[nH]c4n2)C(=O)C3(C)C)cn1` [Example 36, 5-(3,3-Dimethyl-6-(2-methylpyrimidin-5-yl)-2-oxoindolin-1-yl)-1H-imidazo[4,5-b]pyrazin-2(3H)-one]: 375 nM; for `Cc1ncc(-c2ccc3c(c2)N(c2ccc4c(n2)NC(=O)C4(C)C)C(=O)C3(C)C)cn1` [Example 37, 6-(3,3-Dimethyl-6-(2-methylpyrimidin-5-yl)-2-oxoindolin-1-yl)-3,3-dimethyl-1H-pyrrolo[2,3-b]pyridin-2(3H)-one]: 6.7 nM.

In the case of `Cc1ncc(-c2ccc3c(c2)N(c2cnc4c(c2)NC(=O)CO4)C(=O)C3(C)C)cn1` [Example 38, 7-(3,3-Dimethyl-6-(2-methylpyrimidin-5-yl)-2-oxoindolin-1-yl)-1H-pyrido[2,3-b][1,4]oxazin-2(3H)-one], half-maximal inhibition (IC50) required 61.4 nM. As for `Cc1ncc(-c2ccc3c(c2)N(c2cc4c(cn2)C(C)(C)C(=O)N4C2CC2)C(=O)C3(C)C)cn1` [Example 40, 1-Cyclopropyl-6-(3,3-dimethyl-6-(2-methylpyrimidin-5-yl)-2-oxoindolin-1-yl)-3,3-dimethyl-1H-pyrrolo [3,2-c]pyridin-2(3H)-one], the IC50 came out at 493 nM. For the compound `Cc1ncc(-c2ccc3c(c2)N(c2ccc4c(c2)N(C)C(=O)C4(C)C)C(=O)C3(C)C)cn1` [Example 41, 1′,3,3,3′,3′-Pentamethyl-6-(2-methylpyrimidin-5-yl)-[1,6′-biindoline]-2,2′-dione], the IC50 worked out at 114 nM.

With `COc1ccc(CN2C(=O)C(C)(C)c3ccc(N4C(=O)C(C)(C)c5ccc(-c6cnc(C)nc6)cc54)cc32)cc1` [Example 42, 1′-(4-Methoxybenzyl)-3,3,3′,3′-tetramethyl-6-(2-methylpyrimidin-5-yl)-[1,6′-biindoline]-2,2′-dione], the IC50 is 193 nM.

As to `Cc1ncc(-c2ccc3c(c2)N(c2cc4c(cn2)C(C)(C)C(=O)N4)C(=O)C3(C)C)cn1` [Example 43, 6-(3,3-Dimethyl-6-(2-methylpyrimidin-5-yl)-2-oxoindolin-1-yl)-3,3-dimethyl-1H-pyrrolo[3,2-c]pyridin-2(3H)-one], the midpoint of inhibition, the IC50, lay at 385 nM. As to `Cc1ncc(-c2ccc3c(c2)N(c2ccc4c(c2)NC(=O)C4(C)C)C(=O)C3(C)C)cn1` [Example 44, 3,3,3′,3′-Tetramethyl-6-(2-methylpyrimidin-5-yl)-[1,6′-biindoline]-2,2′-dione], the IC50 amounted to 128 nM. For the compound `Cc1ncc(-c2ccc3c(c2)N(c2ccc4oc(C)nc4n2)C(=O)C3(C)C)cn1` [Example 45, 3,3-Dimethyl-1-(2-methyloxazolo[4,5-b]pyridin-5-yl)-6-(2-methylpyrimidin-5-yl)indolin-2-one], the IC50 was 593 nM. For `Cc1ncc(-c2ccc3c(c2)N(c2ccc4c(c2F)N(C)C(=O)C4(C)C)C(=O)C3(C)C)cn1` [Example 46, 7′-Fluoro-1′,3,3,3′,3′-pentamethyl-6-(2-methylpyrimidin-5-yl)-[1,6′-biindoline]-2,2′-dione], it took 244 nM to reach half-maximal inhibition (IC50). Regarding `Cc1ncc(-c2ccc3c(c2)N(c2ccc4nnn(C)c4c2)C(=O)C3(C)C)cn1` [Example 48, 3,3-Dimethyl-1-(1-methyl-1H-benzo[d][1,2,3]triazol-6-yl)-6-(2-methylpyrimidin-5-yl)indolin-2-one], the IC50 turned out to be 184 nM. Turning to `Cc1ncc(-c2ccc3c(c2)N(c2cnc(N4CCOCC4)cn2)C(=O)C3(C)C)cn1` [Example 49, 3,3-Dimethyl-6-(2-methylpyrimidin-5-yl)-1-(5-morpholinopyrazin-2-yl)indolin-2-one], the IC50 came to 415 nM. As for `Cc1ncc(-c2ccc3c(c2)N(c2cnc(N4[C@@H]5COC[C@H]4C5)cn2)C(=O)C3(C)C)cn1` [Example 51, 1-(5-((1R,5S)-3-Oxa-6-azabicyclo[3.1.1]heptan-6-yl)pyrazin-2-yl)-3,3-dimethyl-6-(2-methylpyrimidin-5-yl)indolin-2-one], the figure is 227 nM; as for `Cc1ncc(-c2ccc3c(c2)N(c2cnc(NCCO)cn2)C(=O)C3(C)C)cn1` [Example 52, 1-(5-((2-Hydroxyethyl)amino)pyrazin-2-yl)-3,3-dimethyl-6-(2-methylpyrimidin-5-yl)indolin-2-one], 239 nM. As to `Cc1ncc(-c2ccc3c(c2)N(c2cc4c(nn2)N(C2CC2)C(=O)C4(C)C)C(=O)C3(C)C)cn1` [Example 53, 7-Cyclopropyl-3-(3,3-dimethyl-6-(2-methylpyrimidin-5-yl)-2-oxoindolin-1-yl)-5,5-dimethyl-5H-pyrrolo[2,3-c]pyridazin-6(7H)-one], half-maximal inhibition (IC50) was put at 993 nM.

`Cc1ncc(-c2ccc3c(c2)N(c2cncc(N4CC(C)(C)OC4=O)n2)C(=O)C3(C)C)cn1` [Example 56, 3-(6-(3,3-Dimethyl-6-(2-methylpyrimidin-5-yl)-2-oxoindolin-1-yl)pyrazin-2-yl)-5,5-dimethyloxazolidin-2-one]: the IC50 turned out to be 202 nM.

The compound `Cc1ncc(-c2ccc3c(c2)N(c2cncc(N4CCCS4(=O)=O)n2)C(=O)C3(C)C)cn1` [Example 57, 1-(6-(1,1-Dioxidoisothiazolidin-2-yl)pyrazin-2-yl)-3,3-dimethyl-6-(2-methylpyrimidin-5-yl)indolin-2-one] registered an IC50 of 60.8 nM. Regarding `Cc1ncc(-c2ccc3c(c2)N(c2ccc4cc[nH]c4n2)C(=O)C3(C)C)cn1` [Example 58, 3,3-Dimethyl-6-(2-methylpyrimidin-5-yl)-1-(1H-pyrrolo [2,3-b]pyridin-6-yl)indolin-2-one], the IC50 is 243 nM. In turn, `Cc1ncc(-c2ccc3c(c2)N(c2ccc4c(c2)N(C2COC2)C(=O)C4(C)C)C(=O)C3(C)C)cn1` [Example 59, 3,3,3′,3′-Tetramethyl-6-(2-methylpyrimidin-5-yl)-1′-(oxetan-3-yl)-[1,6′-biindoline]-2,2′-dione] came in with an IC50 of 203 nM. In the case of `Cc1ncc(-c2ccc3c(c2)N(c2ccc4cnn(C)c4c2)C(=O)C3(C)C)cn1` [Example 60, 3,3-Dimethyl-1-(1-methyl-1H-indazol-6-yl)-6-(2-methylpyrimidin-5-yl)indolin-2-one], the half-maximal inhibitory concentration (IC50) was 37.7 nM. `Cc1ncc(-c2ccc3c(c2)N(c2ccc4c(C)nn(C)c4n2)C(=O)C3(C)C)cn1` [Example 61, 1-(1,3-Dimethyl-1H-pyrazolo[3,4-b]pyridin-6-yl)-3,3-dimethyl-6-(2-methylpyrimidin-5-yl)indolin-2-one] yielded an IC50 of 202 nM. In turn, `Cc1ncc(-c2ccc3c(c2)N(c2ccc4ccn(C)c4c2)C(=O)C3(C)C)cn1` [Example 62, 3,3-Dimethyl-1-(1-methyl-1H-indol-6-yl)-6-(2-methylpyrimidin-5-yl)indolin-2-one] had an IC50 of 428 nM. Against the preceding compound, the IC50 is about 2.1-fold higher.

By IC50 is commonly meant the concentration at which inhibition is half-maximal. The low end stands for inhibition by little substance, the high end for a need for much substance.
